Measurements reported in patent publication US20170320870A1 (Medical Research Council Technology, priority 2009, published 2017).

Molecular target: T1, LRRK2 wild type (recombinant human, catalytic domain amino acids 970-2527, GST-tagged) (Homo sapiens, UniProt Q5S007)
T1 construct: The wild type used was recombinant human, catalytic domain (amino acids 970-2527) GST-tagged, expressed in insect cells; GST; purchased Invitrogen Corporation PV4873; host or cells: insect cells
Experiment: LRRK2 wild type protein kinase assay ([γ-33P] ATP, peptide substrate […]), IC50
Format: biochemical
Details: LRRK2 (variant not given); read-out: Potency score, LRRK2 IC50
Outline: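 Insect-cell-expressed enzyme (~5 nM), no activation, incubated 180 min at ~21 °C in 50 mM Tris-HCl pH 7.5, 0.1 mM EGTA, 1 mM DTT, 10 mM MgCl2 with 100 μM peptide substrate and [γ-33P]ATP. Reaction stopped with orthophosphoric acid, captured on P81 filters and counted; IC50 from 10 concentrations in duplicate.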

T1 sequence (Q5S007 970-2527): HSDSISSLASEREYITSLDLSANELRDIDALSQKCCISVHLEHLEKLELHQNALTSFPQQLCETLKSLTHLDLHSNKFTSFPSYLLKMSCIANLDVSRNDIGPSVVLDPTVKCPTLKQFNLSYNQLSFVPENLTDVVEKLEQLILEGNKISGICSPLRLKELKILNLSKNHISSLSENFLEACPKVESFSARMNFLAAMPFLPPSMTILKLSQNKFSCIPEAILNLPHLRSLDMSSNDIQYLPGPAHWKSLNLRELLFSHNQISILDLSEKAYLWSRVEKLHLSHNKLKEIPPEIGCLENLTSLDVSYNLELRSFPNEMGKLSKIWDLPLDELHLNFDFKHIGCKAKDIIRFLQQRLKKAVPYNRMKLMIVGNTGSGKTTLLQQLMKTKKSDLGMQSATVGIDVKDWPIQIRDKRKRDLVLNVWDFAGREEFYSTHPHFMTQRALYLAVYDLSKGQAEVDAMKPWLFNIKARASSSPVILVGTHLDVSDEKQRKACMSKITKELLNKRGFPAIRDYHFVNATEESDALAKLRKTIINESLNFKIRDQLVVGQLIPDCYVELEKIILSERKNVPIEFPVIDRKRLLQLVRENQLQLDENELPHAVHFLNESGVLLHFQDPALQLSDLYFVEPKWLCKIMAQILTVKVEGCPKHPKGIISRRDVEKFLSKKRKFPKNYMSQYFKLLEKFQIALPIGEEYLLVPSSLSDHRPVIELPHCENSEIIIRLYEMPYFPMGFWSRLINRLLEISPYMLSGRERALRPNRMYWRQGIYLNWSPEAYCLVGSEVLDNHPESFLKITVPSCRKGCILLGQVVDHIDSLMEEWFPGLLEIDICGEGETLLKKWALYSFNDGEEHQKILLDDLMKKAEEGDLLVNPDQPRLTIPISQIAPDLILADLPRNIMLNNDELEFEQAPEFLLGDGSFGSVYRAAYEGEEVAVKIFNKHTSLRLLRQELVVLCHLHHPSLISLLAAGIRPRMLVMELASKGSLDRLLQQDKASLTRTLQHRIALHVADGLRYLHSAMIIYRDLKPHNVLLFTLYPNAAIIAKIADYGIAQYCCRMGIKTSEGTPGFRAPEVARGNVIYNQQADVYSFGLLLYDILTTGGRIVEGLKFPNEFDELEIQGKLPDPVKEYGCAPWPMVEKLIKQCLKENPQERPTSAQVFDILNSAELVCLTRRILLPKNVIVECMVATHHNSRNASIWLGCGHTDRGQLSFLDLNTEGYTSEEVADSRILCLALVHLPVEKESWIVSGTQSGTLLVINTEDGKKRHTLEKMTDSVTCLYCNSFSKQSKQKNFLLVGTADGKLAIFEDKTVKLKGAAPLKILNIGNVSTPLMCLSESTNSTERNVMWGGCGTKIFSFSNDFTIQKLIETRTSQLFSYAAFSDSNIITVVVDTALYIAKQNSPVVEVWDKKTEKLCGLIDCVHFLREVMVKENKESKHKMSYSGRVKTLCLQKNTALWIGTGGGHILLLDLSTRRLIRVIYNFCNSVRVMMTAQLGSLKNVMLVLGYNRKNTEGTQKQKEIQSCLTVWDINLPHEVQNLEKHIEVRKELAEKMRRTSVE

Row | SMILES | IC50
1 | O=C(Nc1ccc(CCc2n[nH]c3ccnc(NC4CCCCC4)c23)cc1)c1cocn1 [Example 268, Oxazole-4-carboxylic acid {4-[2-(4-cyclohexylamino-1H-pyrazolo[4,3-c]pyridin-3-yl)-ethyl]-phenyl}-amide] | < 100 nM
2 | O=C(CCc1n[nH]c2ccnc(NC3CCCCC3)c12)N1CCC(c2ccncc2)C1 (centres unmarked) [Example 209, 3-(4-Cyclohexylamino-1H-pyrazolo[4,3-c]pyridin-3-yl)-1-(3-pyridin-4-yl-pyrrolidin-1-yl)-propan-1-one] | < 100 nM
3 | Cc1n[nH]c2ccnc(OCC(C)C)c12 [Example 280, 4-Isobutoxy-3-methyl-1H-pyrazolo[4,3-c]pyridine] | < 100 nM
4 | O=C(c1ccc(CCc2n[nH]c3ccnc(NC4CCCCC4)c23)cc1)N1CC[C@H](c2cccnc2)C1 [Example 248, {4-[2-(4-Cyclohexylamino-1H-pyrazolo[4,3-c]pyridin-3-yl)-ethyl]-phenyl}-((R)-3-pyridin-3-yl-pyrrolidin-1-yl)-methanone] | < 100 nM
5 | O=C(CCc1n[nH]c2ccnc(NC3CCCCC3)c12)N1CCN(c2cccc(Cl)c2)CC1 [Example 180, 1-[4-(3-Chloro-phenyl)-piperazin-1-yl]-3-(4-cyclohexylamino-1H-pyrazolo[4,3-c]pyridin-3-yl)-propan-1-one] | 100 to 1000 nM
6 | O=C(Nc1cccc(CCc2n[nH]c3ccnc(NC4CCCCC4)c23)c1)c1cccc(Cl)c1 [Example 226, 3-Chloro-N-{3-[2-(4-cyclohexylamino-1H-pyrazolo[4,3-c]pyridin-3-yl)-ethyl]-phenyl}-benzamide] | < 100 nM
7 | CN1CCOc2cc(-c3n[nH]c4ccnc(NC5CCCCC5)c34)ccc21 [Example 161, Cyclohexyl-[3-(4-methyl-3,4-dihydro-2H-1,4-benzoxazin-7-yl)-1H-pyrazolo[4,3-c]pyridin-4-yl]-amine] | 100 to 1000 nM
8 | O=C(CCc1n[nH]c2ccnc(NC3CCCCC3)c12)NCc1cccc(F)c1 [Example 186, 3-(4-Cyclohexylamino-1H-pyrazolo[4,3-c]pyridin-3-yl)-N-(3-fluoro-benzyl)-propionamide] | 1000 to 10000 nM
9 | Fc1cc(-c2n[nH]c3ccnc(NC4CCCCC4)c23)cc(F)c1F [Example 163, Cyclohexyl-[3-(3,4,5-trifluoro-phenyl)-1H-pyrazolo[4,3-c]pyridin-4-yl]-amine] | 1000 to 10000 nM
10 | O=C(CCc1n[nH]c2ccnc(NC3CCCCC3)c12)N1CCCC(c2ccccc2)C1 (centres unmarked) [Example 170, 3-(4-Cyclohexylamino-1H-pyrazolo[4,3-c]pyridin-3-yl)-1-(3-phenyl-piperidin-1-yl)-propan-1-one] | 100 to 1000 nM
11 | CCN(CC)CC1CCCN(C(=O)CCc2n[nH]c3ccnc(NC4CCCCC4)c23)C1 (centres unmarked) [Example 240, 3-(4-Cyclohexyl-amino-1H-pyrazolo[4,3-c]pyridin-3-yl)-1-(3-diethylaminomethyl-piperidin-1-yl)-propan-1-one] | 100 to 1000 nM
12 | O=C(COc1ccccc1)Nc1ccc(CCc2n[nH]c3ccnc(NC4CCCCC4)c23)cc1 [Example 273, N-{4-[2-(4-Cyclohexylamino-1H-pyrazolo[4,3-c]pyridin-3-yl)-ethyl]-phenyl}-2-phenoxy-acetamide] | < 100 nM
13 | Cc1n[nH]c2ccnc(Nc3ccc4c(c3)CN(C)CC4)c12 [Example 75, (3-Methyl-1H-pyrazolo[4,3-c]pyridin-4-yl)-(2-methyl-1,2,3,4-tetrahydro-isoquinolin-7-yl)-amine] | 100 to 1000 nM
14 | O=C(CCc1n[nH]c2ccnc(NC3CCCCC3)c12)N1CCCC(C(F)(F)F)C1 (centres unmarked) [Example 202, 3-(4-Cyclohexylamino-1H-pyrazolo[4,3-c]pyridin-3-yl)-1-(3-trifluoromethyl-piperidin-1-yl)-propan-1-one] | 100 to 1000 nM
15 | N#Cc1cccc(C(=O)Nc2ccc(CCc3n[nH]c4ccnc(NC5CCCCC5)c34)cc2)c1 [Example 276, 3-Cyano-N-{4-[2-(4-cyclohexylamino-1H-pyrazolo[4,3-c]pyridin-3-yl)-ethyl]-phenyl}-benzamide] | < 100 nM
16 | N#CCc1ccc(-c2n[nH]c3ccnc(NC4CCCCC4)c23)cc1 [Example 156, [4-(4-Cyclohexylamino-1H-pyrazolo[4,3-c]pyridin-3-yl)-phenyl]-acetonitrile] | 100 to 1000 nM
17 | CN1CCN(C(=O)CCc2n[nH]c3ccnc(NC4CCCCC4)c23)CC1 [Example 177, 3-(4-Cyclohexylamino-1H-pyrazolo[4,3-c]pyridin-3-yl)-1-(4-methyl-piperazin-1-yl)-propan-1-one] | 100 to 1000 nM
18 | CC1CN(C(=O)c2ccc(CCc3n[nH]c4ccnc(NC5CCCCC5)c34)cc2)C1 [Example 251, {4-[2-(4-Cyclohexylamino-1H-pyrazolo[4,3-c]pyridin-3-yl)-ethyl]-phenyl}-(3-methyl-azetidin-1-yl)-methanone] | < 100 nM
19 | O=C(CCc1n[nH]c2ccnc(NC3CCCCC3)c12)N1CCCC(Oc2ccccc2)C1 (centres unmarked) [Example 238, 3-(4-Cyclohexylamino-1H-pyrazolo[4,3-c]pyridin-3-yl)-1-(3-phenoxy-piperidin-1-yl)-propan-1-one] | 100 to 1000 nM
20 | Cc1noc(C2CCCN(C(=O)CCc3n[nH]c4ccnc(NC5CCCCC5)c34)C2)n1 (centres unmarked) [Example 197, 3-(4-Cyclohexylamino-1H-pyrazolo[4,3-c]pyridin-3-yl)-1-[3-(3-methyl-1,2,4-oxadiazol-5-yl)-piperidin-1-yl]-propan-1-one] | 100 to 1000 nM
21 | CS(=O)(=O)N1CCC(CCc2n[nH]c3ccnc(NC4CCCCC4)c23)CC1 [Example 220, Cyclohexyl-{3-[2-(1-methanesulfonyl-piperidin-4-yl)-ethyl]-1H-pyrazolo[4,3-c]pyridin-4-yl}-amine] | 100 to 1000 nM

Results, then the compound that gave them:

Row | IC50 | SMILES
22 | 1000 to 10000 nM | Cc1cc(C)c(Nc2nccc3[nH]nc(C)c23)cn1 [Example 350, (4,6-Dimethyl-pyridin-3-yl)-(3-methyl-1H-pyrazolo[4,3-c]pyridin-4-yl)-amine]
23 | 1000 to 10000 nM | COc1ccc(CCNc2nccc3[nH]nc(C)c23)cc1 [Example 338, [2-(4-Methoxy-phenyl)-ethyl]-(3-methyl-1H-pyrazolo[4,3-c]pyridin-4-yl)-amine]
24 | 1000 to 10000 nM | Cc1n[nH]c2ccnc(N[C@H](CO)C(C)C)c12 [Example 28, (S)-3-Methyl-2-(3-methyl-1H-pyrazolo[4,3-c]pyridin-4-ylamino)-butan-1-ol]
25 | 1000 to 10000 nM | CC(=O)NCCNc1nccc2[nH]nc(C)c12 [Example 302, N-[2-(3-Methyl-1H-pyrazolo[4,3-c]pyridin-4-ylamino)-ethyl]-acetamide]
26 | 1000 to 10000 nM | Cc1n[nH]c2ccnc(-c3ccc(N4CCOCC4)cc3)c12 [Example 53, 3-Methyl-4-(4-morpholin-4-yl-phenyl)-1H-pyrazolo[4,3-c] pyridine]
27 | 1000 to 10000 nM | Cc1n[nH]c2ccnc(NC3CCN(C(=O)CCN4CCOCC4)CC3)c12 [Example 103, 1-[4-(3-Methyl-1H-pyrazolo[4,3-c]pyridin-4-ylamino)-piperidin-1-yl]-3-morpholin-4-yl-propan-1-one]
28 | < 100 nM | Cc1n[nH]c2ccnc(O[C@@H]3CCC[C@H]3C)c12 (racemic) [Example 298, Trans-3-Methyl-4-(2-methyl-cyclopentyloxy)-1H-pyrazolo[4,3-c]pyridine]
29 | 1000 to 10000 nM | Cc1n[nH]c2ccnc(-c3ncco3)c12 [Example 129, 3-Methyl-4-oxazol-2-yl-1H-pyrazolo[4,3-c]pyridine]
30 | 1000 to 10000 nM | Cc1n[nH]c2ccnc(Nc3ccc(C(=O)N(C)C4CCCCC4)cc3)c12 [Example 107, N-Cyclohexyl-N-methyl-4-(3-methyl-1H-pyrazolo [4,3-c]pyridin-4-ylamino)-benzamide]
31 | 1000 to 10000 nM | Cc1n[nH]c2ccnc(Nc3ccc(S(C)(=O)=O)cc3)c12 [Example 322, (4-Methanesulfonyl-phenyl)-(3-methyl-1H-pyrazolo[4,3-c]pyridin-4-yl)-amine]
32 | 100 to 1000 nM | CC[C@H](C)Nc1nccc2[nH]nc(C)c12 [Example 44]
33 | 100 to 1000 nM | Cc1n[nH]c2ccnc(Nc3cccc(CO)c3)c12 [Example 321, [3-(3-Methyl-1H-pyrazolo[4,3-c]pyridin-4-ylamino)-phenyl]-methanol]
34 | 1000 to 10000 nM | Cc1n[nH]c2ccnc(N[C@H](C)c3ccccc3)c12 [Example 19, (3-Methyl-1H-pyrazolo[4,3-c]pyridin-4-yl)-((R)-1-phenyl-ethyl)-amine]
35 | 100 to 1000 nM | Cc1n[nH]c2ccnc(-c3ccc(CNS(C)(=O)=O)cc3)c12 [Example 55, N-[4-(3-Methyl-1H-pyrazolo[4,3-c]pyridin-4-yl)-benzyl]-methane-sulfonamide]
36 | 100 to 1000 nM | CC(=O)N1CCC(Nc2nccc3[nH]nc(C)c23)CC1 [Example 101, 1-[4-(3-Methyl-1H-pyrazolo[4,3-c]pyridin-4-ylamino)-piperidin-1-yl]-ethanone]
37 | 100 to 1000 nM | Cc1n[nH]c2ccnc(Nc3cccc(Cl)c3)c12 [Example 59, (3-Chloro-phenyl)-(3-methyl-1H-pyrazolo[4,3-c]pyridin-4-yl)-amine]
38 | 1000 to 10000 nM | Cc1n[nH]c2ccnc(OC3CCN(C)CC3)c12 [Example 116, 3-Methyl-4-(1-methyl-piperidin-4-yloxy)-1H-pyrazolo[4,3-c] pyridine]
39 | 100 to 1000 nM | Cc1n[nH]c2ccnc(OC3CCOCC3)c12 [Example 118, 3-Methyl-4-(tetrahydro-pyran-4-yloxy)-1H-pyrazolo[4,3-c]pyridine]
40 | 100 to 1000 nM | Cc1n[nH]c2ccnc(NC3CCN(C)CC3)c12 [Example 13, (1-Methyl-piperidin-4-yl)-(3-methyl-1H-pyrazolo[4,3-c]pyridin-4-yl)-amine]
41 | 1000 to 10000 nM | CC(=O)N1CCC(CCc2n[nH]c3ccnc(NC4CCCCC4)c23)CC1 [Example 219, 1-{4-[2-(4-Cyclohexylamino-1H-pyrazolo[4,3-c]pyridin-3-yl)-ethyl]-piperidin-1-yl}-ethanone]
